Test results from US10829458B2 (Araxes Pharma LLC, priority 2015, dated 2020).

Biological target: T1, KRAS G12C 1-169, his-tagged protein, GDP-loaded (Homo sapiens, UniProt P01116, G12C)
T1 construct: KRAS G12C 1-169, his-tagged protein, GDP-loaded
Assay: Biochemical assay: covalent modification of KRAS G12C measured by mass spectrometry (RapidFire/TOF or Q-Exactive)
Conditions: covalent binding to KRAS G12C
Outline: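 GDP-loaded his-tagged KRAS G12C 1-169 at 2 μM in 20 mM Hepes, 150 mM NaCl, 1 mM MgCl2 incubated at room temperature with compound (10, 30 or 100 μM final, 2% DMSO) for 30 min, 2 h or 24 h, then quenched with formic acid. Intact-protein LC-MS (RapidFire/TOF or Q-Exactive) with deconvolution quantified modified versus unmodified protein.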

Row | SMILES | Binding % (compounds of structure (I)) | further results
1 | C=CC(=O)N1CCN(c2nc(NCCF)nc3c(F)c(-c4cc(O)cc5ccccc45)c(Cl)cc23)CC1 [Example I-61, 1-(4-(6-chloro-8-fluoro-2-(2-fluoroethyl-amino)-7-(3-hydroxy-naphthalen-1-yl)quinazolin-4-yl)piperazin-1-yl)prop-2-en-1-one] | +++ (+++ indicates binding activity greater than 90%) | –
2 | C=CC(=O)N1CCN(c2nc(NC3CCCN(CC4CC4)C3)nc3c(F)c(-c4c(O)cccc4F)c(Cl)cc23)CC1 (stereo not shown) [Example I-134, 1-(4-(6-chloro-2-(1-(cyclopropyl-methyl)piperidin-3-ylamino)-8-fluoro-7-(2-fluoro-6-hydroxyphenyl)quinazolin-4-yl)piperazin-1-yl) prop-2-en-1-one] | +++ (+++ indicates binding activity greater than 90%) | –
3 | C=CC(=O)N1CCN(c2nc(OCCN3CCOCC3)nc3c(F)c(-c4c(F)cccc4OC)c(Cl)cc23)CC1 [Example I-39, 1-(4-(6-chloro-8-fluoro-7-(2-fluoro-6-methoxyphenyl)-2-(2-morpholino-ethoxy)quinazolin-4-yl)piperazin-1-yl)prop-2-en-1-one] | +++ (+++ indicates binding activity greater than 90%) | –
4 | C=CC(=O)N1CCN(c2nc(OC3CCN(CC(F)(F)F)CC3)nc3c(F)c(-c4c(O)cccc4F)c(Cl)cc23)CC1 [Example I-27, 1-(4-(6-chloro-8-fluoro-7-(2-fluoro-6-hydroxyphenyl)-2-(1-(2,2,2-trifluoroethyl)piperidin-4-yloxy)quinazolin-4-yl)piperazin-1-yl)prop-2-en-1-one] | +++ (+++ indicates binding activity greater than 90%) | –
5 | C=CC(=O)N1CCN(c2nc(OCC(O)CN(C)C)nc3c(F)c(-c4cc(O)cc5ccccc45)c(Cl)cc23)CC1 (stereo not shown) [Example I-58, 1-(4-(6-chloro-2-(3-(dimethyl-amino)-2-hydroxy-propoxy)-8-fluoro-7-(3-hydroxy-naphthalen-1-yl)quinazolin-4-yl)piperazin-1-yl)prop-2-en-1-one] | +++ (+++ indicates binding activity greater than 90%) | –
6 | C=CC(=O)N1CCN(c2ncnc3c(F)c(-c4c(O)cccc4F)c(Cl)cc23)C2CC21 (stereo not shown) [III-16, 1-(5-(6-chloro-8-fluoro-7-(2-fluoro-6-hydroxy-phenyl)quinazolin-4-yl)-2,5-diazabicyclo [4.1.0.]heptan-2-yl)prop-2-en-1-one] | – | Binding % (compounds of structure (III)): + (+ indicates binding activity up to 50%)
7 | C=CC(=O)N1CCN(c2nc(N3CC(N4CCC(F)(F)CC4)C3)nc3c(F)c(-c4c(O)cccc4F)c(Cl)cc23)CC1 [Example I-23, 1-(4-(6-chloro-2-(3-(4,4-difluoro-piperidin-1-yl)azetidin-1-yl)-8-fluoro-7-(2-fluoro-6-hydroxyphenyl)quinazolin-4-yl)piperazin-1-yl) prop-2-en-1-one] | ++ (++ indicates binding activity from 50 to 90%) | –
8 | C=CC(=O)N1CCN(c2nc(N3CC(COC)C3)nc3c(F)c(-c4c(C)ccc5[nH]ncc45)c(Cl)cc23)CC1 [Example I-152, 1-(4-(6-chloro-8-fluoro-2-(3-(methoxy-methyl)azetidin-1-yl)-7-(5-methyl-1H-indazol-4-yl)quinazolin-4-yl)piperazin-1-yl) prop-2-en-1-one] | +++ (+++ indicates binding activity greater than 90%) | –
9 | C=CC(=O)N1CCN(c2nc(OCC(O)CN(C)C)nc3c(F)c(-c4c(C)ccc5[nH]ncc45)c(Cl)cc23)CC1 (stereo not shown) [Example I-53, 1-(4-(6-chloro-2-(3-(dimethyl-amino)-2-hydroxy-propoxy)-8-fluoro-7-(5-methyl-1H-indazol-4-yl)quinazolin-4-yl)piperazin-1-yl)prop-2-en-1-one] | +++ (+++ indicates binding activity greater than 90%) | –
10 | C=CC(=O)N1CCN(c2nc(OCCN3CCOCC3)nc3c(F)c(-c4c(O)cccc4F)c(Cl)cc23)CC1 (atropisomer, axis not shown) [Example I-29, (S)-1-(4-(6-chloro-8-fluoro-7-(2-fluoro-6-hydroxyphenyl)-2-(2-morpholino-ethoxy)quinazolin-4-yl)piperazin-1-yl)prop-2-en-1-one] | +++ (+++ indicates binding activity greater than 90%) | –
11 | C=CC(=O)N1CCN(c2nc(OC3CN(C4CCOCC4)C3)nc3c(F)c(-c4c(O)cccc4F)c(Cl)cc23)CC1 [Example I-186, 1-(4-(6-chloro-8-fluoro-7-(2-fluoro-6-hydroxyphenyl)-2-((1-(tetrahydro-2H-pyran-4-yl)azetidin-3-yl)oxy)quinazolin-4-yl)piperazin-1-yl) prop-2-en-1-one] | ++ (++ indicates binding activity from 50 to 90%) | –
12 | C=CC(=O)N1CCN(c2nc(OCCN3CCOCC3)nc3c(F)c(-c4c(O)cccc4F)c(Cl)cc23)CC1 [Example I-10, 1-(4-(6-chloro-8-fluoro-7-(2-fluoro-6-hydroxyphenyl)-2-(2-morpholino-ethoxy)quinazolin-4-yl)piperazin-1-yl)prop-2-en-1-one] | +++ (+++ indicates binding activity greater than 90%) | –
13 | C=CC(=O)N1CCC2(C1)CN(c1ncnc3c(F)c(-c4c(O)cccc4F)c(Cl)cc13)C2 [II-8, 1-(2-(6-chloro-8-fluoro-7-(2-fluoro-6-hydroxyphenyl)quinazolin-4-yl)-2,6-diazaspiro[3.4]octan-6-yl)prop-2-en-1-one] | – | Binding % (compounds of structure (II)): + (+ indicates binding activity up to 50%)
14 | C=CC(=O)N1CCN(c2nc(OCCNP(C)(C)=O)nc3c(F)c(-c4c(O)cccc4F)c(Cl)cc23)CC1 [Example I-207, N-(2-(4-(4-acryloyl-piperazin-1-yl)-6-chloro-8-fluoro-7-(2-fluoro-6-hydroxyphenyl)quinazolin-2-yloxy)ethyl)-P,P-dimethyl-phosphinic amide] | ++ (++ indicates binding activity from 50 to 90%) | –
15 | C=CC(=O)N1CCN(c2ncnc3c(F)c(-c4c(O)cccc4F)c(Cl)cc23)[C@@H](C(C)C)C1 [III-34, 1-((3S)-4-(6-chloro-8-fluoro-7-(2-fluoro-6-hydroxy-phenyl)quinazolin-4-yl)-3-isopropyl-piperazin-1-yl)prop-2-en-1-one] | – | Binding % (compounds of structure (III)): + (+ indicates binding activity up to 50%)
16 | C=CC(=O)N1CCN(c2nc(C#N)nc3c(F)c(-c4c(O)cccc4F)c(Cl)cc23)CC1 [Example I-68, 4-(4-acryloyl-piperazin-1-yl)-6-chloro-8-fluoro-7-(2-fluoro-6-hydroxyphenyl) quinazoline-2-carbonitrile] | +++ (+++ indicates binding activity greater than 90%) | –
17 | C=CC(=O)N1CCN(c2ncnc3c(F)c(-c4cc(O)cc5ccccc45)c(Cl)cc23)[C@@H](C)C1 [III-30, 1-((3S)-4-(6-chloro-8-fluoro-7-(3-hydroxy-naphthalen-1-yl)quinazolin-4-yl)-3-methyl-piperazin-1-yl)prop-2-en-1-one] | – | Binding % (compounds of structure (III)): +++ (+++ indicates binding activity greater than 90%)
18 | C=CC(=O)N1CCN(c2nc(CCNc3ccccn3)nc3c(F)c(-c4c(O)cccc4F)c(Cl)cc23)CC1 [Example I-201, 1-(4-(6-chloro-8-fluoro-7-(2-fluoro-6-hydroxyphenyl)-2-(2-(pyridin-2-ylamino)ethyl)quinazolin-4-yl)piperazin-1-yl) prop-2-en-1-one] | ++ (++ indicates binding activity from 50 to 90%) | –
19 | O=C(/C=C/CN1CCC1)N1CCN(c2ncnc3c(F)c(-c4c(O)cccc4F)c(Cl)cc23)CC1 [II-2, (E)-4-(azetidin-1-yl)-1-(4-(6-chloro-8-fluoro-7-(2-fluoro-6-hydroxyphenyl)quinazolin-4-yl)piperazin-1-yl)but-2-en-1-one] | – | Binding % (compounds of structure (II)): +++ (+++ indicates binding activity of 75% or greater)
20 | C=CC(=O)N1CCN(c2nc(OCCN3CC[C@H](OC)C3)nc3c(F)c(-c4c(O)cccc4F)c(Cl)cc23)CC1 [Example I-33, 1-(4-(6-chloro-8-fluoro-7-(2-fluoro-6-hydroxyphenyl)-2-(2-((S)-3-methoxy-pyrrolidin-1-yl)ethoxy)quinazolin-4-yl)piperazin-1-yl)prop-2-en-1-one] | +++ (+++ indicates binding activity greater than 90%) | –
21 | C=CC(=O)N1CCN(c2nc(OCCN3CCS(=O)(=O)CC3)nc3c(F)c(-c4c(O)cccc4F)c(Cl)cc23)CC1 [Example I-67, 1-(4-(6-chloro-8-fluoro-7-(2-fluoro-6-hydroxyphenyl)-2-(2-dioxothio-morpholino-ethoxy)quinazolin-4-yl)piperazin-1-yl)prop-2-en-1-one] | +++ (+++ indicates binding activity greater than 90%) | –
22 | C=CC(=O)N1CCN(c2nc(OCC3OCCO3)nc3c(F)c(-c4c(C)ccc5[nH]ncc45)c(Cl)cc23)CC1 [Example I-164, 1-(4-(2-((1,3-dioxolan-2-yl)methoxy)-6-chloro-8-fluoro-7-(5-methyl-1H-indazol-4-yl)quinazolin-4-yl)piperazin-1-yl) prop-2-en-1-one] | ++ (++ indicates binding activity from 50 to 90%) | –
23 | C=CC(=O)N1CCN(c2nc(OCc3ccc(C#N)nc3)nc3c(F)c(-c4c(O)cccc4F)c(Cl)cc23)CC1 [Example I-129, 5-((4-(4-acryloyl-piperazin-1-yl)-6-chloro-8-fluoro-7-(2-fluoro-6-hydroxyphenyl)quinazolin-2-yloxy)methyl) picolinonitrile] | +++ (+++ indicates binding activity greater than 90%) | –
24 | C=CC(=O)N1CCN(c2nc(C(=O)N3CCN(C)CC3)nc3c(F)c(-c4c(O)cccc4F)c(Cl)cc23)CC1 [Example I-90, 1-(4-(6-chloro-8-fluoro-7-(2-fluoro-6-hydroxyphenyl)-2-(4-methyl-piperazine-1-carbonyl)quinazolin-4-yl)piperazin-1-yl)prop-2-en-1-one] | +++ (+++ indicates binding activity greater than 90%) | –
25 | C=CC(=O)N1CCN(c2nc(C(F)(F)F)nc3c(F)c(-c4c(O)cccc4F)c(Cl)cc23)CC1 [Example I-204, 1-(4-(6-chloro-8-fluoro-7-(2-fluoro-6-hydroxyphenyl)-2-(trifluoro-methyl)quinazolin-4-yl)piperazin-1-yl) prop-2-en-1-one] | ++ (++ indicates binding activity from 50 to 90%) | –
